Assay [1] deals with HT-29 (human colon adenocarcinoma). Kind of assay: Inhibition of cell proliferation (MTT), HT-29. The format is cell-based. The conditions noted are these: 48 h of treatment (footnote), average ±SD of three experiments.
In assay [2] the test system is HEK-293 (human embryonic kidney cells). The experiment in a line: Inhibition of cell proliferation (MTT), nontumor HEK-293. In kind it is cell-based. To be noted: 48 h of treatment (footnote), average ±SD of three experiments.
Assay [3] relates to A-549 cells. The experiment in a line: Cell cycle distribution by flow cytometry. To be noted: A-549, 24 h; for Effect on the cell cycle: concentration per compound as in Tables 6 and 7. In kind it is cell-based, human. An outline of the steps: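 A-549 cells were harvested, fixed in cold 70% ethanol (30 min, −20 °C), then stained with 50 µg/mL propidium iodide plus 100 µg/mL RNase A in PBS for 20 min at room temperature in the dark. Flow cytometry used 488 nm excitation and 620 nm emission, giving the percentage of cells in G2/M.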
Background: A flow cytometer gives signals particle by particle.

Assay [4] deals with VEGF gene. Kind of assay: VEGF gene expression by RT-qPCR in HT-29 cells. In kind it is cell-based, human. The conditions noted are these: HT-29, 48 h; for mrna remaining at 0.007 µM: 7 nM. The procedure:
(§1) The effect on the expression of VEGF, hTERT and c-Myc genes has been studied for CA-4 and its derivatives that show selectivity indexes higher than 0.9 on the HT-29 cell line. The studied derivatives, together with the concentrations to which they have been tested, are CA-4 (15 μM); 4.1 (Gly, 5 μM); 4.5 (L-Pro, 25 μM); 4.9 (L-Met, 25 μM); 6.2 (D-Leu, 25 μM); 6.3 (D-Phe, 25 μM); 6.4 (D-Pro, 25 μM) and 6.5 (D-Ser, 10 μM). The expression of the genes was determined by RT-qPCR methodology, as described in the Materials and Methods section.
(§2) As regards AmCA-4 derivatives, the effect on the expression of the VEGF, hTERT and c-Myc genes has been studied on those that show IC50 in the low nanomolar range on the HT-29 cell line and/or on compounds whose selectivity indexes with respect to this cell line are higher than 1. The studied compounds, together with the concentrations to which they have been tested, are: CA-4 (15 μM), AmCA-4 (15 nM), 7.1 (7 nM), 7.2 (1.5 nM), 7.3 (4 nM), 7.4 (15 nM), 7.5 (2 nM), 7.7 (7 nM), 7.8 (15 nM), 7.9 (30 nM), 8.1 (7 nM), 8.2 (3 nM), 8.3 (10 nM), 8.4 (1.5 nM), 8.5 (4 nM), 8.7 (7 nM), 8.8 (3 nM) and 8.9 (4 nM).
(§3) HT-29 cells at 70–80% confluence were collected, and 1.5 × 10^5 cells were placed in a six-well plate in 1.5 mL of the medium. After 24 h, cells were incubated with the corresponding compounds for 48 h. Cells were collected, and the total cellular RNA from the HT-29 cells was isolated using an Ambion RNA Extraction Kit, according to the manufacturer’s instructions. The cDNA was synthesized by MMLV-RT with […] of extracted RNA and oligo(dT)15, according to the manufacturer’s instructions. Genes were amplified by a thermal cycler and StepOnePlus™ TaqMan® probes. TaqMan® Gene Expression Master Mix Fast, containing the appropriate buffer for the amplification conditions, dNTPs, thermostable DNA polymerase enzyme and a passive reference probe, was used. To amplify each of the genes, the predesigned primers sold by Life Technologies TaqMan® Gene Expression Assays Hs99999903-m1 (β-actin), Hs00900055-m1 (VEGF), Hs00972646-m1 (hTERT) and Hs00153408-m1 (c-Myc) were used.
In general terms: Quantitative PCR measures a nucleic acid by following its amplification.

The subject of assay [5] is hTERT gene. The experiment in a line: hTERT gene expression by RT-qPCR in HT-29 cells. The conditions noted are these: Homo sapiens, HT-29, 48 h, control 100; for mrna remaining at 0.007 µM: 7 nM. The format is cell-based, human. The procedure:
as §1, §2, §3

The mark [6] stands for this setting: Homo sapiens, HT-29, 48 h, Table 1.
Where [7] appears, read: Homo sapiens, HEK293, 48 h, Table 1.
Setting [8] is: Homo sapiens, HT-29, 48 h, Table 2.
[9] abbreviates: Homo sapiens, HEK293, 48 h, Table 2.

In the case of `COc1ccc(/C=C\c2cc(OC)c(OC)c(OC)c2)cc1OCC(=O)N1CCC[C@@H]1C(=O)O` [Compound 6.4], the figures for the IC50 in assay [1] (setting [6]) and in assay [2] (setting [7]) were 50000 ± 11000 nM and 53000 ± 9000 nM, respectively. In assay [3] (75 μM), the G0/G1 is given as 71%. The compound further came in with a G2/M in assay [3] (75 μM) of 15%. Further, the S in assay [3] (75 μM) worked out at 14%. For the same compound, the “Effect on the cell cycle” value in assay [3] is recorded as “do not exert any significant effect on the cells”. The mrna remaining at 25 µM in assay [4] (Homo sapiens, 25 μM, control 100) was found to be 25%; in assay [5] (25 μM), 51%.

`COc1ccc(/C=C\c2cc(OC)c(OC)c(OC)c2)cc1OCC(=O)N[C@H](CO)C(=O)O` [Compound 6.5]: the IC50 came out at 13000 ± 1000 nM in assay [1] (setting [6]) and 14000 ± 4000 nM in assay [2] (setting [7]). Moreover, the G0/G1 in assay [3] (75 μM) is given as 64%. In assay [3] (75 μM), this compound came in with a G2/M of 18%. The compound further showed a S in assay [3] (75 μM) of 18%. In addition, the “Effect on the cell cycle” value in assay [3] was “do not exert any significant effect on the cells”. Further, the mrna remaining at 10 µM in assay [4] (Homo sapiens, 10 μM, control 100) is 54%; in assay [5] (10 μM) it was 77%.

In turn, `COc1ccc(/C=C\c2cc(OC)c(OC)c(OC)c2)cc1NC(=O)CNC(=O)OCC1c2ccccc2-c2ccccc21` [Compound 7.1] displayed an IC50 in assay [1] (setting [8]) of 7 ± 4 nM. In assay [2] (setting [9]), this compound yielded an IC50 of 3.5 ± 1.9 nM. In assay [3] (0.5 µM), the G0/G1 came out at 28 ± 1%, the G2/M was determined as 54 ± 1% and the S worked out at 18 ± 2%. The mrna remaining at 0.007 µM in assay [4] (Homo sapiens, control 100) worked out at 69%. This compound yielded a mrna remaining at 0.007 µM in assay [5] of under 70%.

For the compound `COc1ccc(/C=C\c2cc(OC)c(OC)c(OC)c2)cc1NC(=O)[C@H](Cc1ccccc1)NC(=O)OCC1c2ccccc2-c2ccccc21` [Compound 7.5], the IC50 was determined as 8 ± 3 nM in assay [1] (setting [8]) and 2.3 ± 2 nM in assay [2] (setting [9]). This compound showed a G0/G1 in assay [3] (2 µM) of 34 ± 2%. In addition, the G2/M in assay [3] (2 µM) came out at 46 ± 3%. In addition, the S in assay [3] (2 µM) is 20 ± 1%. In assay [4] (discussion, concentration per compound), the “downregulation of VEGF gene expression” value is “more than 60%”. The mrna remaining at 0.002 µM in assay [4] (Homo sapiens, 2 nM, control 100) is 16%; in assay [5] (2 nM) it was under 70%.

Consider `COc1ccc(/C=C\c2cc(OC)c(OC)c(OC)c2)cc1NC(=O)[C@H](CCSC)NC(=O)OCC1c2ccccc2-c2ccccc21` [Compound 7.9], for which the half-inhibitory concentration (IC50) was 33 ± 20 nM in assay [1] (setting [8]) and 8 ± 4 nM in assay [2] (setting [9]). For the same compound, in assay [3] (2 µM), the G0/G1 worked out at 72 ± 2%. For the same compound, the G2/M in assay [3] (2 µM) was 10 ± 3%. The compound also had a S in assay [3] (2 µM) of 18 ± 1%. In addition, the “Effect on the cell cycle” value in assay [3] is recorded as “do not accumulate a high percentage of cells in phase G2/M”. Further, the mrna remaining at 0.03 µM in assay [4] (Homo sapiens, 30 nM, control 100) came to 68%; in assay [5] (30 nM), 77%.

For `COc1ccc(/C=C\c2cc(OC)c(OC)c(OC)c2)cc1NC(=O)CN` [Compound 8.1], the IC50 in assay [1] (setting [8]) was 10 ± 2 nM. This compound displayed a half-maximal inhibitory concentration (IC50) in assay [2] (setting [9]) of 10 ± 2 nM. In assay [3] (2 µM), this compound came in with a G0/G1 of 32 ± 5%, a G2/M of 46 ± 4% and an S of 22 ± 2%. For the same compound, the mrna remaining at 0.007 µM in assay [4] (Homo sapiens, control 100) was determined as 24%. This compound also came in with a mrna remaining at 0.007 µM in assay [5] of over 100%.

Consider `COc1ccc(/C=C\c2cc(OC)c(OC)c(OC)c2)cc1NC(=O)[C@H](C)N` [Compound 8.2], for which the half-maximal inhibitory concentration (IC50) in assay [1] (setting [8]) was under 5 nM; in assay [1] (Table 2), 3 ± 0.3 nM; in assay [2] (setting [9]) it was under 5 nM; in assay [2] (Table 2), 4 ± 0.1 nM. This compound returned a G0/G1 in assay [3] (3 µM) of 28 ± 1%. In assay [3] (3 µM), the G2/M came to 58 ± 5%. The compound also displayed a S in assay [3] (3 µM) of 14 ± 4%. For the same compound, the mrna remaining at 0.003 µM in assay [4] (Homo sapiens, 3 nM, control 100) stood at 84%; in assay [5] (3 nM) it was 74%.

Usually IC50 stands for the concentration that gives 50% inhibition. Low values mean inhibition by little substance, high ones a need for much substance.
